A word on the pIC50: it is the negative decadic logarithm of the IC50, by convention in mol/L. Broadly, the inhibition is how much of the control response was suppressed.

pIC50: −log10 of the molar value.

T1 sequence (P16234 24-1089): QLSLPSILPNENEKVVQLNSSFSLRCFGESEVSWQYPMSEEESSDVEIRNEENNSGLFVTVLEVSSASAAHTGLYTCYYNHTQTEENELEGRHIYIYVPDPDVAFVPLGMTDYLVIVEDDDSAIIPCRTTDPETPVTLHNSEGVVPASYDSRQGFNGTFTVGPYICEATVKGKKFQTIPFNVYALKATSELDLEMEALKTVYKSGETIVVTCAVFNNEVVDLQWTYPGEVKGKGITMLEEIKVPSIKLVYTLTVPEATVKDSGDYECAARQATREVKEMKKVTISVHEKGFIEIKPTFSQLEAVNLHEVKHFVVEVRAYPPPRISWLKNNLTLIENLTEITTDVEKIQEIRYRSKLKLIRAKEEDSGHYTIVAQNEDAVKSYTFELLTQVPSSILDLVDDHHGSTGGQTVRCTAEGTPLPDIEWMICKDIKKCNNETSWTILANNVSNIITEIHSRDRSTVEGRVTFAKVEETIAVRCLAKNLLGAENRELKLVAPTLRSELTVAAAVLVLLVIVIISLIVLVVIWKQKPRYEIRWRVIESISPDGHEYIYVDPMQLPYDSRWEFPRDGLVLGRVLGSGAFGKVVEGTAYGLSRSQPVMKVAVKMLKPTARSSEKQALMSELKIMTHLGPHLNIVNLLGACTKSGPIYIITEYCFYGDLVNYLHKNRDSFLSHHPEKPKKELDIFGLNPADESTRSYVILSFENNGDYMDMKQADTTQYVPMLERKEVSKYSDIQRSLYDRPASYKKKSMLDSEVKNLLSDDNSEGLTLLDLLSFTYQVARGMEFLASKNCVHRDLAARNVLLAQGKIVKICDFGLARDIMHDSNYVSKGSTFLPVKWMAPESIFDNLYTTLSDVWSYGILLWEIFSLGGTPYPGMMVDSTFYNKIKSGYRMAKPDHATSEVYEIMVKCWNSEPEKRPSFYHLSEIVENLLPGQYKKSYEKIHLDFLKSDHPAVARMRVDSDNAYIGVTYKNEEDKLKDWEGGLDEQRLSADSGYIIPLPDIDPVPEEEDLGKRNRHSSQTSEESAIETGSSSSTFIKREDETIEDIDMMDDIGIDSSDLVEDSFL

One test addresses T1, PDGF-Ra (Homo sapiens, UniProt P16234).
T1 construct: host or cells: G-292 human osteosarcoma cells
Briefly: Inhibitory activity against PDGF-Ra phosphorylation by PDGF-AA stimulation using G292. It counts as cell-based. The conditions noted are these: Pharmacological Test Example 1; > means inhibition at indicated concentration not more than 50%, < and << not less than 50%; read-out: PDGF (E) IC50. Here is the method: Measurement of Inhibitory Activity Against PDGF-Ra Phosphorylation by PDGF-AA Stimulation Using G292
G-292 human osteosarcoma cells (Dainippon Pharmaceutical Co. Ltd.) were cultured in a DMEM medium (Dainippon Pharmaceutical Co. Ltd.) containing 10% FBS within an incubator containing 5% carbon dioxide until 80% confluent, and the cells were planted at 3×10^4 cells per well in 96-well flat-bottom plates in the same medium containing 0.1% FBS. After cultivation at 37° C. overnight, a solution of a test compound in dimethyl sulfoxide was added to each well, and a reaction was allowed to proceed at 37° C. for one hr.
After the reaction of the test compound, PDGF-AA (Upstate) was added to 50 ng/ml, and the cells were stimulated at 37° C. for 5 min. Thereafter, the cells were solubilized and shaken at room temperature for 20 min.
This solubilized cell solution was transferred to a 96-well plate coated with aniti-phosphotyrosine antibody PY-20, and a reaction was allowed to proceed at 4° C. overnight. Anti-PDGF-Ra (c-20) (Santa Cruz) was added as a primary antibody, and a reaction was allowed to proceed for one hr. GAR (Anti-rabbit Ig, horseradish peroxidase, Amersham) was then added as a secondary antibody, and a reaction was allowed to proceed for one hr. Color development was carried out using a color development kit for peroxidase (Sumitomo Bakelite Co., Ltd.), and the absorbance was measured at 450 nm.
“1-[3-(Trifluoromethoxy)phenyl]ethyl N-{4-[(6,7-dimethoxy-4-quinolyl)oxy]-2,3-dimethylphenyl}carbamate [Example 181]”: the pIC50 was < 7.00. The same measure, in the same setting: with “4-(Dimethylamino)butyl N-{4-[(6,7-dimethoxy-4-quinolyl)oxy]phenyl}carbamate [Example 192]” the figure was 7.25. With `COc1cc2ncnc(Oc3ccc(NC(=O)OCCCSc4ccc(C(C)(C)C)cc4)cc3)c2cc1OC` [Example 75, 3-{[4-(Tert-butyl)phenyl]sulfanyl}propyl N-{4-[(6,7-dimethoxy-4-quinazolinyl)oxy]phenyl}carbamate], the pIC50 was 7.60.

As to `COc1cc2ncnc(Oc3ccc(NC(=O)OC(C)c4ccc(F)cc4)c(Cl)c3)c2cc1OC` (stereo not drawn) [Example 106, 1-(4-Fluorophenyl)ethyl N-{2-chloro-4-[(6,7-dimethoxy-4-quinazolinyl)oxy]phenyl}carbamate], the pIC50 was 7.92. For `COc1cc2ncnc(Oc3ccc(NC(=O)OC(C)c4ccccc4Br)c(Cl)c3)c2cc1OC` (stereo not drawn) [Example 116, 1-(2-Bromophenyl)ethyl N-{2-chloro-4-[(6,7-dimethoxy-4-quinazolinyl)oxy]phenyl}carbamate], the pIC50 was 7.51. Still for that read-out and setting: in the case of `COc1cc2nccc(Oc3cc(C)c(NC(=O)Sc4ccc(Cl)cc4C)cc3C)c2cc1OC` [Example 178, 4-Chloro-2-methylphenyl{4-[(6,7-dimethoxy-4-quinolyl)oxy]-2,5-dimethylanilino}methanethioate] it was < 7.00; in that of `COc1cc2ncnc(Oc3ccc(NC(=O)Sc4ccc(Cl)cc4C)cc3)c2cc1OC` [Example 179, 4-Chloro-2-methylphenyl{4-[(6,7-dimethoxy-4-quinazolinyl)oxy]anilino}methanethioate], 7.15. Turning to `COc1cc2nccc(Oc3ccc(NC(=O)OC(C)c4cccc(OC(F)(F)F)c4)cc3)c2cc1OC` (stereo not drawn) [Example 180, 1-[3-(Trifluoromethoxy)phenyl]ethyl N-{4-[(6,7-dimethoxy-4-quinolyl)oxy]phenol}carbamate], the pIC50 was 7.20. In the case of `COc1cc2nccc(Oc3cc(C)c(NC(=O)OC(C)c4cccc(OC(F)(F)F)c4)cc3C)c2cc1OC` (stereo not drawn) [Example 182, 1-[3-(Trifluoromethoxy)phenyl]ethyl N-{4-[(6,7-dimethoxy-4-quinolyl)oxy]-2,5-dimethylphenyl}carbamate], the pIC50 was < 7.00.

As for `CCCC(OC(=O)Nc1ccc(Oc2ccnc3cc(OC)c(OC)cc23)c(C)c1C)c1ccccc1` (stereo not drawn) [Example 185, 1-Phenylbutyl N-{4-[(6,7-dimethoxy-4-quinolyl)oxy]-2,3-dimethylphenyl}carbamate], the pIC50 is 7.34. In the case of `CCCC(OC(=O)Nc1cc(C)c(Oc2ccnc3cc(OC)c(OC)cc23)cc1C)c1ccccc1` (stereo not drawn) [Example 186, 1-Phenylbutyl N-{4-[(6,7-dimethoxy-4-quinolyl)oxy]-2,5-dimethylphenyl}carbamate], the negative-log IC50 (pIC50) was 7.20. For the compound `COc1cc2nccc(Oc3ccc(NC(=O)OCCN(C)C)c(C)c3C)c2cc1OC` [Example 189, 2-(Dimethylamino)ethyl N-{4-[(6,7-dimethoxy-4-quinolyl)oxy]-2,3-dimethylphenyl}carbamate], the pIC50 is 7.24.

For another test, the target named is T2, c-kit (Homo sapiens, UniProt P10721).
T2 construct: MO7e (human megakaryocytic leukemia cell line) which had been arrested for 20 hr; endogenous in cells; host or cells: MO7e human megakaryocytic leukemia cell line
T2 sequence (P10721 26-976): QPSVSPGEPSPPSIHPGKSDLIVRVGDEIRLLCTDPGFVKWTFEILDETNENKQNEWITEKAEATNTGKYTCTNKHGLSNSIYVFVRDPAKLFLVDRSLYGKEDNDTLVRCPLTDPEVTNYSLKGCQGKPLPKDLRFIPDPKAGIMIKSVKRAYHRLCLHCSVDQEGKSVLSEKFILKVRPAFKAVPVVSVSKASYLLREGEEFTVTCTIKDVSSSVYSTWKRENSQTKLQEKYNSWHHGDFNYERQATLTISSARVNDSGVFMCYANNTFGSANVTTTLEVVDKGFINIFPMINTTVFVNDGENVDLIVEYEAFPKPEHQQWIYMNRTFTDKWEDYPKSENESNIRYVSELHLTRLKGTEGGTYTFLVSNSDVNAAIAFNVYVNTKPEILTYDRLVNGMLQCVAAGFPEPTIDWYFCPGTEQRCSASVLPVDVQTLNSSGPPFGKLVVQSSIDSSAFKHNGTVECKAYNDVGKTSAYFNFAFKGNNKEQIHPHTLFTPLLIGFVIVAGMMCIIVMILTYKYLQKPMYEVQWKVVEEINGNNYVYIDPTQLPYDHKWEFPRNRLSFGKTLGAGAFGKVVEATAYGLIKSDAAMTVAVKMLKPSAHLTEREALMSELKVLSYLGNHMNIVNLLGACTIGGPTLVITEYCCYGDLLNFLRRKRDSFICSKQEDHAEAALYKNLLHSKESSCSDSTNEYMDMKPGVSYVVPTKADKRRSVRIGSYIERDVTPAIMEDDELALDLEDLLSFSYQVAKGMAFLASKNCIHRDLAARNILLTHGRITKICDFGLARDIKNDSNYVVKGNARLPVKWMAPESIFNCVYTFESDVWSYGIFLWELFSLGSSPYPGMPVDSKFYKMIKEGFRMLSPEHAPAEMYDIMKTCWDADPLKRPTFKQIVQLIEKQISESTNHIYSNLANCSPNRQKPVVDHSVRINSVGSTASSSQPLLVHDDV
Briefly: Inhibitory activity against c-kit autophosphorylation (MO7e cells, h-SCF). Type of test: cell-based. Conditions: MO7e cells, h-SCF stimulation; read-out: c-kit IC50. In outline: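 Phospho-c-kit ELISA: plate-bound PY-20 anti-phosphotyrosine captures lysate, anti-c-kit plus peroxidase-labelled secondary antibody detect, read at 450 nm. Lysates come from 20 hr-arrested MO7e cells given compound for 1 hr before a 5 min 50 ng/ml h-SCF stimulus.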
On to `COc1ccc(C(=O)NC(=S)Nc2ccc(Oc3ccnc4cc(OC)c(OC)cc34)c(F)c2)c(OC)c1` [Example 1113, N-(2,4-Dimethoxybenzoyl)-N′-{4-[(6,7-dimethoxy-4-quinolyl)oxy]-3-fluorophenyl}thiourea], for which the pIC50 was 6.11. On to `COc1cc2nccc(Oc3ccc(NC(=S)NC(=O)c4ccc(Cl)cc4Cl)cc3Cl)c2cc1OC` [Example 1114, N-{3-Chloro-4-[(6,7-dimethoxy-4-quinolyl)oxy]phenyl}-N′-(2,4-dichlorobenzoyl)thiourea], for which the pIC50 was 6.17. For `COc1cc2nccc(Oc3ccc(NC(=S)NC(=O)c4cc(Cl)cc(Cl)c4)cc3Cl)c2cc1OC` [Example 1116, N-{3-Chloro-4-[(6,7-dimethoxy-4-quinolyl)oxy]phenyl}-N′-(3,5-dichlorobenzoyl)thiourea], the pIC50 was 6.06.

As to `COc1cc2nccc(Oc3ccc(NC(=S)NC(=O)c4ccc(Cl)c(Cl)c4)cc3)c2cc1OC` [Example 1120], the pIC50 was 6.11. Still for that read-out and setting: with `COc1cc2nccc(Oc3ccc(NC(=S)NC(=O)c4ccc(F)cc4F)c(F)c3)c2cc1OC` [Example 1121, N-(2,4-Difluorobenzoyl)-N′-{4-[(6,7-dimethoxy-4-quinolyl)oxy]-2-fluorophenyl}thiourea] the figure was > 7.52; with `COc1cc2nccc(Oc3ccc(NC(=S)NC(=O)CCc4ccccc4C)cc3F)c2cc1OC` [Example 1134, N-{4-[(6,7-Dimethoxy-4-quinolyl)oxy]-3-fluorophenyl}-N′-[3-(2-methylphenyl)propanoyl]thiourea], 6.77; with `COc1cc2nccc(Oc3ccc(NC(=S)NC(=O)c4ccc5c(c4)OCO5)cc3F)c2cc1OC` [Example 1145, N-(1,3-Benzodioxol-5-ylcarbonyl)-N′-{4-[(6,7-dimethoxy-4-quinolyl)oxy]-3-fluorophenyl}thiourea], 6.26.

The test is the same for the next values; noted with them: Mo7e, figure in parentheses in −( ); at 1000 nM.
For the compound `COc1cc2nccc(Oc3ccc(NC(=S)NC(=O)c4c(Cl)cccc4Cl)cc3F)c2cc1OC` [Example 1112, N-(2,6-Dichlorobenzoyl)-N′-{4-[(6,7-dimethoxy-4-quinolyl)oxy]-3-fluorophenyl}thiourea], the inhibition at 1 µM was 19%.

As to `COc1cc2nccc(Oc3ccc(NC(=S)NC(=O)c4c(Cl)cccc4Cl)cc3Cl)c2cc1OC` [Example 1115, N-{3-Chloro-4-[(6,7-dimethoxy-4-quinolyl)oxy]phenyl}-N′-(2,6-dichlorobenzoyl)thiourea], the inhibition at 1 µM is 10%.

On to `COc1ccc(C(=O)NC(=S)Nc2ccc(Oc3ccnc4cc(OC)c(OC)cc34)c(Cl)c2)c(OC)c1` [Example 1117, N-{3-Chloro-4-[(6,7-dimethoxy-4-quinolyl)oxy]phenyl}-N′-(2,4-dimethoxybenzoyl)thiourea], for which the inhibition at 1 µM is 31%.

Take `COc1cc2nccc(Oc3ccc(NC(=S)NC(=O)c4c(Cl)cccc4Cl)cc3)c2cc1OC` [Example 1118, N-(2,6-Dichlorobenzoyl)-N′-{4-[(6,7-dimethoxy-4-quinolyl)oxy]phenyl}thiourea]: the inhibition at 1 µM was 0%. In the case of `COc1ccc(C(=O)NC(=S)Nc2ccc(Oc3ccnc4cc(OC)c(OC)cc34)cc2)c(OC)c1` [Example 1119, N-(2,4-Dimethoxybenzoyl)-N′-{4-[(6,7-dimethoxy-4-quinolyl)oxy]phenyl}thiourea], the inhibition at 1 µM turned out to be 27%. For the compound `COc1cc2ncnc(Oc3ccc(NC(=S)NC(=O)c4ccc(Cl)cc4Cl)cc3)c2cc1OC` [Example 1207, N-(2,4-Dichlorobenzoyl)-N′-{4-[(6,7-dimethoxy-4-quinazolinyl)oxy]phenyl}thiourea], the inhibition at 1 µM turned out to be 16%. `COc1cc2nccc(Oc3ccc(NC(=S)NC(=O)c4ccc(F)cc4F)cc3Cl)c2cc1OC` [Example 1208, N-{3-Chloro-4-[(6,7-dimethoxy-4-quinolyl)oxy]phenyl}-N′-(2,4-difluorobenzoyl)thiourea]: the inhibition at 1 µM was 22%.

Staying with this test, now noted: figure in parentheses in −( ); at 1000 nM; 1 µM.
For `COc1cc2nccc(Oc3ccc(NC(=S)NC(=O)Cc4ccccc4)c(C)c3C)c2cc1OC` [Example 1206, N-{4-[(6,7-Dimethoxy-4-quinolyl)oxy]-2,3-dimethylphenyl}-N′-(2-phenylacetyl)thiourea], the “c-kit inhibition (%) at 1000 nM” value is listed as “−(27) %”.

The values above are taken from patent US7135466B2 (Kirin Beer Kabushiki Kaisha, priority 1999, dated 2006).
